Measurements reported in US7045547B2, “Acyl-CoA dehydrogenase allenic inhibitors” (University of Delaware, priority 2002, dated 2006).
Where two headings read alike, the source gives them in different places.

Legend:
[1] = molecular target: T1, medium chain dehydrogenase (Sus scrofa, UniProt P41367); assay: Competition studies with the substrate octanoyl-CoA; format: biochemical, pig; parameters: medium-chain acyl-CoA dehydrogenase (MC-CoA DH) as purified from pig kidney; from tissue; host or cells: pig kidney; conditions: 30 μM octanoyl-CoA, 3 nM dehydrogenase
T1 sequence (P41367 26-421): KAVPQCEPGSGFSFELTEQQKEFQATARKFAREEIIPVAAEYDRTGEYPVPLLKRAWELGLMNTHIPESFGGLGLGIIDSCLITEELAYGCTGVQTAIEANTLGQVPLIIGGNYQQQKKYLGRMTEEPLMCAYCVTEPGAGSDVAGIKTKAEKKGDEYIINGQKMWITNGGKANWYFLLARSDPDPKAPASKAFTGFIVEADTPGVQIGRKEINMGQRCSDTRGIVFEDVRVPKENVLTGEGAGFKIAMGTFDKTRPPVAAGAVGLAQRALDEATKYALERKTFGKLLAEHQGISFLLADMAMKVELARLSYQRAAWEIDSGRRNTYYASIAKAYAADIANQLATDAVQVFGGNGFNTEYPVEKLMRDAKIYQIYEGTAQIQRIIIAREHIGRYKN
Experimental: (§1) General Information: Medium chain acyl-CoA dehydrogenase was purified from pig kidney as described previously (33). Porcine liver esterase (EC 3.1.1.1), CoASH (lithium salt), D-pantethine, and 5,5′-dithio-bis(2-nitrobenzoic acid) were obtained from Sigma. E,E-2,4-octadienal and E,E-2,4-dodecadienal were from Alfa and K & K Laboratories respectively. […] Thorpe et al. in Biochemistry 1979, 18, 331–337. Unless otherwise stated, buffers were 50 mM potassium phosphate, pH 7.6, containing 0.3 mM EDTA, and experiments were conducted at 25° C. Assays of the medium chain dehydrogenase were as described previously, see C. Thorpe et al. in Anal. Biochem. 1990, 186, 280–284. Static and rapid-reaction spectrophotometry were performed as reported in C. Thorpe et al, in Biochemistry 1998, 37, 10469–10477.
In competition studies with the substrate octanoyl-CoA, at a concentration of 30 μM, both the CoA and pantetheine analogs of the compounds of the invention are shown to be relatively strong reversible inhibitors of medium chain dehydrogenase. The assay studies included a dehydrogenase concentration of 3 nM. Compared to a control without inhibitor, 4.4 nM of the 3,4-decadienoyl-CoA analog decreased the rate to 50% within 1 minute.

[2] = molecular target: T2, medium-chain acyl-CoA dehydrogenase (MC-CoA DH) (Sus scrofa, UniProt P41367); assay: Kinetic stability of enzyme adducts (return of oxidized flavin absorbance at 446 nm); format: biochemical, pig; conditions: for rate constant of enzyme adduct decomposition: 1.6 equivalents racemic 3,4-dienoyl-CoA (0.8 equivalent R-isomer), 9.5 μM enzyme, pH 7.6; for enzyme adduct stability relative to the corresponding full length CoA-thioester: times more stable than the CoA adduct
T2 construct: medium-chain acyl-CoA dehydrogenase (MC-CoA DH) as purified from pig kidney; from tissue; host or cells: pig kidney
T2 sequence (P41367 26-421): T1 sequence (P41367 26-421)
From the text: The reduced flavin adduct decomposes to the 2,4-conjugated diene with the return of the oxidized flavin absorbance spectrum. This isomerization provides a measure of the kinetic stability of each of the enzyme adducts formed. The dehydrogenase enzyme used in the stability testing of the inventive compounds was medium-chain acyl-CoA dehydrogenase (MC-CoA DH) as purified from pig kidney.
as §1
A solution of acyl-CoA dehydrogenase (9.5 μM in 50 mM phosphate buffer, pH 7.6, 25° C.) is mixed with 1.6 equivalents of racemic 3,4-dienoyl-CoA derivatives (0.8 equivalent of R-isomer) containing 5, 6, 7, 8, 10, 12 and 15 carbon acyl chains. The return of oxidized flavin absorbance was monitored at 446 nm. A sub-stoichiometric amount (1.6 equivalents racemate: corresponding to 0.8 equivalent of the R-isomer) is used to avoid the lag phases encountered in the presence of excess inhibitor. The return of oxidized flavin absorbance is strongly chain length dependent.
Enzyme adduct stabilities with the medium-chain acyl-CoA dehydrogenase of R-(−)-3,4-decadienoyl-CoA, R-(−)-3,4-decadienoyl-pantetheine, and R-(−)-3,4-decadienoyl N-acetylcysteamine were compared. The dehydrogenase was incubated with 0.8 equivalents of the CoA, pantetheine and N-acetylcysteamine thioesters of R-(−)-3,4-decadienoic acid until maximal bleaching of the flavin chromophore was observed. The reappearance of the oxidized flavin chromophore was then followed at 25° C.

[3] = molecular target: T1, medium chain dehydrogenase; conditions: absence of displacing ligand; cited from earlier work
[4] = molecular target: T3, medium chain acyl-CoA dehydrogenase (Sus scrofa, UniProt P41367); assay: Spectral titration / inhibition of the dehydrogenase by allenic thioesters; format: biochemical, pig
T3 construct: medium-chain acyl-CoA dehydrogenase (MC-CoA DH) as purified from pig kidney; from tissue; host or cells: pig kidney
T3 sequence (P41367 26-421): T1 sequence (P41367 26-421)
From the text: See, Example 1. The (S)-enantiomer is rapidly isomerized to the trans-2,4-conjugated diene. […] These structural studies show a surprising, but relatively large, variation in the interaction between structurally similar inhibitors.
as §1
The spectral changes were completed rapidly before measurement could be made. Intermediate spectra are omitted for clarity. […] In FIG. 1C, the enzyme (5.06 μM in 50 mM phosphate buffer, pH 7.6, 25° C.; curve 1) was titrated with 2.53, 5.06, 36.4, 66.8, 109.3 μM of S-(+)-decadienoyl-CoA (curves 2–6, respectively). Intermediate spectra are omitted for clarity. The absorbance values at 446 nm are shown in the inset.

[5] = molecular target: T3, medium chain acyl-CoA dehydrogenase; assay: Enzyme adduct formation: bleaching of the flavin chromophore at 446 nm (stopped-flow / conventional spectrophotometry); format: biochemical, pig; conditions: for limiting rate of flavin bleaching / rate constant of bleaching of the flavin chromophore at 446 nm: 2° C.; for rate constant of bleaching of the flavin chromophore at 446 nm: at 50 μM; for long wavelength band: compared with the CoA compound, pantetheine at 50 μM
Experimental: as §1
(§2) Bleaching of the flavin chromophore, followed at 446 nm, is relatively rapid for the pantetheine compound, but slow enough for a conventional spectrophotometer with the N-acetylcysteamine compound. At 50 μM, the rate constants are 30.9 s^−1, 7.5 s^−1, and 0.035 s^−1 for the CoA, pantetheine, N-acetylcysteamine compounds, respectively at 2° C. Limiting rates of 33 s^−1 and 55 s^−1 are obtained for CoA and pantetheine thioesters, respectively.
Dehydrogenase and R-(−)3,4-decadienoyl-CoA are mixed in the stopped-flow spectrophotometer at 2° C. to give final concentrations of 11 μM and 60 μM. The absorbance changes at 446 and 800 nm are shown in the inset of FIG. 2. As is observed with a number of diverse thioester substrates, such as butyryl-, octanoyl- and dihydrocinnamoyl-CoA, bleaching of the flavin at 446 nm is biphasic.
The absorbance changes were recorded in a 2 cm path-length cell after mixing dehydrogenase and R-(−)-thioester in the stopped flow spectrophotometer to give final concentrations of 5.5 and 30 μM respectively in 50 mM phosphate buffer, pH 7.6 at 2° C. […] Absorbance traces at a range of wavelengths were used to construct the spectrum of the intermediate species maximal at about 20 msec.

[6] = Solubility observation during rate measurements; format: physicochemical
Experimental: as §2

With “3,4-decadienoyl pantetheine [3,4-decadienoyl-pantetheine]” the IC50 ([1]; read-out: concentration required to decrease the rate to 50% of control) was 500 nM.

In the case of CCCCCCCC=C=CCC(=O)SCCNC(=O)CCNC(=O)[C@H](O)C(C)(C)COP(=O)(O)OP(=O)(O)OC[C@H]1O[C@@H](n2cnc3c(N)ncnc32)[C@H](O)[C@@H]1OP(=O)(O)O (racemic) [3,4-dodecadienoyl-CoA], the “rate constant of enzyme adduct decomposition” value ([2]; 25° C.) is reported as 0.18 h⁻¹.

With CCC=C=CCC(=O)SCCNC(=O)CCNC(=O)[C@H](O)C(C)(C)COP(=O)(O)OP(=O)(O)OC[C@H]1O[C@@H](n2cnc3c(N)ncnc32)[C@H](O)[C@@H]1OP(=O)(O)O (racemic) [3,4-heptadienoyl-CoA] the “rate constant of enzyme adduct decomposition” value ([2]; 25° C.) was 1.9 h⁻¹.

In the case of CC=C=CCC(=O)SCCNC(=O)CCNC(=O)[C@H](O)C(C)(C)COP(=O)(O)OP(=O)(O)OC[C@H]1O[C@@H](n2cnc3c(N)ncnc32)[C@H](O)[C@@H]1OP(=O)(O)O (racemic) [3,4-hexadienoyl-CoA], the “rate constant of enzyme adduct decomposition” value ([2]; 25° C.) is reported as 8.7 h⁻¹.

In the case of CCCC=C=CCC(=O)SCCNC(=O)CCNC(=O)[C@H](O)C(C)(C)COP(=O)(O)OP(=O)(O)OC[C@H]1O[C@@H](n2cnc3c(N)ncnc32)[C@H](O)[C@@H]1OP(=O)(O)O (racemic) [3,4-octadienoyl-CoA], the “rate constant of enzyme adduct decomposition” value ([2]; 25° C.) is reported as 0.08 h⁻¹.

In the case of CCCCCCCCCCC=C=CCC(=O)SCCNC(=O)CCNC(=O)[C@H](O)C(C)(C)COP(=O)(O)OP(=O)(O)OC[C@H]1O[C@@H](n2cnc3c(N)ncnc32)[C@H](O)[C@@H]1OP(=O)(O)O (racemic) [3,4-pentadecanedienoyl-CoA], the “rate constant of enzyme adduct decomposition” value ([2]; 25° C.) is reported as 0.27 h⁻¹.

In the case of C=C=CCC(=O)SCCNC(=O)CCNC(=O)[C@H](O)C(C)(C)COP(=O)(O)OP(=O)(O)OC[C@H]1O[C@@H](n2cnc3c(N)ncnc32)[C@H](O)[C@@H]1OP(=O)(O)O [3,4-pentadienoyl-CoA, reference compound], the “half-life of reduced flavin adduct” value [3] is given as “about 75 min” and the “rate constant of enzyme adduct decomposition” value ([2]; 25° C.) is given as 1.6 h⁻¹.

For CCCC=C=CCC(=O)SCCNC(=O)CCNC(=O)[C@H](O)C(C)(C)COP(=O)(O)OP(=O)(O)OC[C@H]1O[C@@H](n2cnc3c(N)ncnc32)[C@H](O)[C@@H]1OP(=O)(O)O [(R)-3,4-octadienoyl-CoA], the “inhibition of the dehydrogenase” value [4] was “potent inhibitor”.

For CCCC=C=CCC(=O)SCCNC(=O)CCNC(=O)[C@H](O)C(C)(C)COP(=O)(O)OP(=O)(O)OC[C@H]1O[C@@H](n2cnc3c(N)ncnc32)[C@H](O)[C@@H]1OP(=O)(O)O [(S)-3,4-octadienoyl-CoA], the “inhibition of the dehydrogenase” value [4] was “very little, if any, inhibition”.

With CCCCCC=C=CCC(=O)SCCNC(=O)CCNC(=O)[C@H](O)C(C)(C)COP(=O)(O)OP(=O)(O)OC[C@H]1O[C@@H](n2cnc3c(N)ncnc32)[C@H](O)[C@@H]1OP(=O)(O)O [R-(−)-3,4-decadienoyl-CoA] the “limiting rate of flavin bleaching” value [5] was 33 s⁻¹, the “rate constant of bleaching of the flavin chromophore at 446 nm” value (from here on “rate constant of bleaching … at 446 nm”) [5] was 30.9 s⁻¹ and the “stoichiometry of bleaching at 446 nm” value ([4]; 9.6 μM enzyme, pH 7.6, 25° C., FIG. 1B inset) was 0.95 equivalents.

With CCCCCC=C=CCC(=O)SCCNC(C)=O [R-(−)-3,4-decadienoyl-N-acetylcysteamine] the “rate constant of bleaching … at 446 nm” value [5] was 0.035 s⁻¹, the long wavelength band [5] was “no long-wavelength band was observed” and the “solubility” value [6] was “low solubility”. For the same compound, the “regain of flavin absorbance (adduct stability in words)” value ([2]; 0.8 equivalents, 25° C.) was “no appreciable regain of the flavin absorbance after two days” and the “enzyme adduct stability relative to the corresponding full length CoA-thioester” value [2] was “greater than 100 times”.

For CCCCCC=C=CCC(=O)SCCNC(=O)CCNC(=O)[C@H](O)C(C)(C)CO [R-(−)-3,4-decadienoyl-pantetheine], the “limiting rate of flavin bleaching” value [5] was 55 s⁻¹, the “rate constant of bleaching … at 446 nm” value [5] was 7.5 s⁻¹ and the long wavelength band [5] was “one quarter as intense”. The “enzyme adduct stability relative to the corresponding full length CoA-thioester” value [2] was roughly 9 times and the “enzyme adduct stability relative to the corresponding full length CoA-thioester” value ([2]; listed as (R)-3,4-decadienoyl-pantetheine) was 10 times.

For CCCCCC=C=CCC(=O)SCCNC(=O)CCNC(=O)[C@H](O)C(C)(C)COP(=O)(O)OP(=O)(O)OC[C@H]1O[C@@H](n2cnc3c(N)ncnc32)[C@H](O)[C@@H]1OP(=O)(O)O [S-(+)-3,4-decadienoyl-CoA], the “inhibition of the dehydrogenase” value [4] was “relatively weak inhibitor” and the “flavin adduct formation” value ([4]; spectral titration) was “does not form a detectable flavin adduct”.

For decadienoyl-CoA, the IC50 ([1]; within 1 minute, read-out: concentration that decreased the rate to 50% of control) was 4.4 nM and the “rate constant of enzyme adduct decomposition” value ([2]; 25° C.) was 0.12 h⁻¹.
